Assay results taken from EP4038059B1, “SUBSTITUTED CARBAZOLE COMPOUNDS” (Bristol-Myers Squibb Company, priority 2019, dated 2021).

How the values were obtained:
Assay type in all cases: cell-based
human TLR7 = biological target: T1, human TLR7 (Homo sapiens, UniProt Q9NYK1); assay: TLR7 inhibition reporter assay (HEK-Blue SEAP); conditions: HEK-Blue cells overexpressing human TLR7, stimulated with gardiquimod 7.5 µM, 22 h incubation
T1 construct: host or cells: HEK-Blue cells
T1 sequence (Q9NYK1 27-1049): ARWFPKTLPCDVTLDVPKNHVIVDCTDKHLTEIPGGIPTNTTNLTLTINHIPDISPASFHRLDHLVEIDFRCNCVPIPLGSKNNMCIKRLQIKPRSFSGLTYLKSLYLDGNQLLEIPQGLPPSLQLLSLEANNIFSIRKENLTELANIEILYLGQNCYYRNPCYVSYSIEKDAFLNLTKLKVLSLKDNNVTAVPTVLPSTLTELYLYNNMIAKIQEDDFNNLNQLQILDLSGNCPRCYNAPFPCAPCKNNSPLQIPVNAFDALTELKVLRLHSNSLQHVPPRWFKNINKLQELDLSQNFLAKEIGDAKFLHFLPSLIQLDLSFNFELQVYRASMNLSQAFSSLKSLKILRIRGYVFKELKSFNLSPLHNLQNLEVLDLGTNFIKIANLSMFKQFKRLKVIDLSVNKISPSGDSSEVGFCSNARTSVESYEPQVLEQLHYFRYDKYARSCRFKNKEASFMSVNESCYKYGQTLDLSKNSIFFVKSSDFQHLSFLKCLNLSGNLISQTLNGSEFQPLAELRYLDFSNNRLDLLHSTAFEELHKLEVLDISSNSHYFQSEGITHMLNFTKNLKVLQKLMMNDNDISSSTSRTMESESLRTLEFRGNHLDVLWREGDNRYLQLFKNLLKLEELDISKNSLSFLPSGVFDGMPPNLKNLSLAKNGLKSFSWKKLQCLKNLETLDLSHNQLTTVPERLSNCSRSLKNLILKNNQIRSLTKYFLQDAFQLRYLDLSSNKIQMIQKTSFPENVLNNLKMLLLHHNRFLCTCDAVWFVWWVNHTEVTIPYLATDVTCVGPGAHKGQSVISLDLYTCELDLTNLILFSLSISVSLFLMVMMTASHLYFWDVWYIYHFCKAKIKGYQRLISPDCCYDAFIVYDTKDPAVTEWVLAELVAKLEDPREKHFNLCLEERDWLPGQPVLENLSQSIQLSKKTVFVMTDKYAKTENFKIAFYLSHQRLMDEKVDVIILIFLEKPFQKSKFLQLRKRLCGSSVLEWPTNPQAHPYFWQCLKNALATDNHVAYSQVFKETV
Method: (§1) HEK-Blue™-cells (Invivogen) overexpressing human TLR7, TLR8 or TLR9 receptors were used for screening inhibitors of these receptors using an inducible SEAP (secreted embryonic alkaline phosphatase) reporter gene under the control of the IFN-β minimal promoter fused to five NF-κB and AP-1-binding sites. Briefly, cells are seeded into Greiner 384 well plates (15000 cells per well for TLR7, 20,000 for TLR8 and 25,000 for TLR9) and then treated with test compounds in DMSO to yield a final dose response concentration range of 0.05 nM - 50 µM. After a 30 minute compound pre-treatment at room temperature, the cells are then stimulated with a TLR7 ligand (gardiquimod at a final concentration of 7.5 µM), TLR8 ligand (R848 at a final concentration of 15.9 µM) or TLR9 ligand (ODN2006 at a final concentration of 5 nM) to activate NF-κB and AP-1 which induce the production of SEAP. After a 22 h incubation at 37°C, 5% CO2, SEAP levels are determined with the addition of HEK-Blue™ Detection reagent (Invivogen), a cell culture medium that allows for detection of SEAP, according to manufacturer's specifications. The percent inhibition is determined as the % reduction in the HEK-Blue signal present in wells treated with agonist plus DMSO alone compared to wells treated with a known inhibitor.

human TLR8 = biological target: T2, human TLR8 (Homo sapiens, UniProt Q9NR97); assay: TLR8 inhibition reporter assay (HEK-Blue SEAP); conditions: HEK-Blue cells overexpressing human TLR8, stimulated with R848 15.9 µM, 22 h incubation
T2 construct: host or cells: HEK-Blue cells
T2 sequence (Q9NR97 27-1041): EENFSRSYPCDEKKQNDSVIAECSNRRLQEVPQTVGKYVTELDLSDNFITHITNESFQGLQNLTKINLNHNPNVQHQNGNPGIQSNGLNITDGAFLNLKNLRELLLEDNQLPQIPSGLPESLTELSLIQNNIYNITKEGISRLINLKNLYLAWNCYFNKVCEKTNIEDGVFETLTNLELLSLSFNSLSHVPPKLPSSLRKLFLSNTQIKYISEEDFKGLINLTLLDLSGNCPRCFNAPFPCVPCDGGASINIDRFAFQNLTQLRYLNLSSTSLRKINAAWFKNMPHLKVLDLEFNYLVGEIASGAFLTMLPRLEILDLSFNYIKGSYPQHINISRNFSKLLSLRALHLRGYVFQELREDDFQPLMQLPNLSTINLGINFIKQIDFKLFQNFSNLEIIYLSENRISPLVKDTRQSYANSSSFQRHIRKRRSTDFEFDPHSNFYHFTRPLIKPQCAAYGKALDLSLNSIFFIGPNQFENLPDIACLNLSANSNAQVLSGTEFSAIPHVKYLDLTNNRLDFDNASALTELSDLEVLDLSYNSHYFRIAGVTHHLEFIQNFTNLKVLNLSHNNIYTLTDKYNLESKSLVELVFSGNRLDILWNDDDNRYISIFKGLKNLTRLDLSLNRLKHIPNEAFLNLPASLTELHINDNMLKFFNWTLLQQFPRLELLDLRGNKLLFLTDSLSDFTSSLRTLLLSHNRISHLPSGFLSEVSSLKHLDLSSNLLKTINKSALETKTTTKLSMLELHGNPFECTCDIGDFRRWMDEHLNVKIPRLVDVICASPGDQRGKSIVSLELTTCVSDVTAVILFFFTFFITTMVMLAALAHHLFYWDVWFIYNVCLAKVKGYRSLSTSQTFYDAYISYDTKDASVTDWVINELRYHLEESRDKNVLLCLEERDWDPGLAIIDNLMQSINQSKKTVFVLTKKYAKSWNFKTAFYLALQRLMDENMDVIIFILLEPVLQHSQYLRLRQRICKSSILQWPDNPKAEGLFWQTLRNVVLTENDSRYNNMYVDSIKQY
Method: as §1

human TLR9 = biological target: T3, human TLR9 (Homo sapiens, UniProt Q9NR96); assay: TLR9 inhibition reporter assay (HEK-Blue SEAP); conditions: HEK-Blue cells overexpressing human TLR9, stimulated with ODN2006 5 nM, 22 h incubation
T3 construct: host or cells: HEK-Blue cells
T3 sequence (Q9NR96 26-1032): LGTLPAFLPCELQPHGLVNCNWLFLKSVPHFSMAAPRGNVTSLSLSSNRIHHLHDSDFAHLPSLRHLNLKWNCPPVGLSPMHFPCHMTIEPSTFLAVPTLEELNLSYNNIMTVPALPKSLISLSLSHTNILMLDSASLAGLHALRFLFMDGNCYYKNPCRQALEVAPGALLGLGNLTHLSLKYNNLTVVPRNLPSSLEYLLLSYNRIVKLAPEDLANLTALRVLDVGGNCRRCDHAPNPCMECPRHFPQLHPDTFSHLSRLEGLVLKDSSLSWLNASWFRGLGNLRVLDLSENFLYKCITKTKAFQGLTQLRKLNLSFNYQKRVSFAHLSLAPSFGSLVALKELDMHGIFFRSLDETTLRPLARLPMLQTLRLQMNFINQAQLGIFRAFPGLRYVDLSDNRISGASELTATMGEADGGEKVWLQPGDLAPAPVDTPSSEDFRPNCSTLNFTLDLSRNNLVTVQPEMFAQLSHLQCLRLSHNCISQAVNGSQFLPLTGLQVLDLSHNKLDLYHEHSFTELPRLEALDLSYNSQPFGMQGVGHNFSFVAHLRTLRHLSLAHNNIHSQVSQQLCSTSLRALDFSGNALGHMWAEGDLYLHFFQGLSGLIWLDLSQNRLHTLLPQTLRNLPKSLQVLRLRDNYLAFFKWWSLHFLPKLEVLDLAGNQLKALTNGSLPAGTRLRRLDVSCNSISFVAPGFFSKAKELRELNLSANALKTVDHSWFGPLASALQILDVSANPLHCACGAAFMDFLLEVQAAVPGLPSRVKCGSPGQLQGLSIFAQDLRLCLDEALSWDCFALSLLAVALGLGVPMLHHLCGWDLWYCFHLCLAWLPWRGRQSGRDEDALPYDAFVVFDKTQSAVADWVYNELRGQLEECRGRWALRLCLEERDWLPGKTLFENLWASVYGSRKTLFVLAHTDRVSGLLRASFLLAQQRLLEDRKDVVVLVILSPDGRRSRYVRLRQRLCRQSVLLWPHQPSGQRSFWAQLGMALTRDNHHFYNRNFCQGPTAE
Method: as §1

Row | IC50 (human TLR7) [µM] | IC50 (human TLR8) [µM] | IC50 (human TLR9) [µM] | Compound
1 | 0.109 | 0.358 | 0.668 | Cc1cc(-c2ccc3c(c2)[nH]c2ccc(C4CCNCC4)cc23)cn2ncnc12 [Example 3, 2-(8-methyl-[1,2,4]triazolo[1,5-a]pyridin-6-yl)-6-(piperidin-4-yl)-9H-carbazole]
2 | 0.0022 | 0.0024 | 0.35 | Cc1c(-c2cc(C)c3c(c2)[nH]c2ccc(C4CCNCC4)cc23)cn(C)c(=O)c1C [Example 10, 1,3,4-trimethyl-5-(4-methyl-6-(piperidin-4-yl)-9H-carbazol-2-yl)pyridin-2(1H)-one]
3 | 0.0024 | 0.021 | 0.04 | Cc1cc(-c2cc(C)c3c(c2)[nH]c2ccc(C4CCNCC4)cc23)cc(C)n1 [Example 11]
4 | 0.0014 | 0.0068 | 0.153 | COc1cc(-c2cc(C)c3c(c2)[nH]c2ccc(C4CCNCC4)cc23)cn2ncnc12 [Example 12]
5 | 0.0007 | 0.0068 | 0.349 | Cc1cc(-c2cc(C)c3ncnn3c2)cc2[nH]c3ccc(C4CCNCC4)cc3c12 [Example 13]
6 | 0.0012 | 0.0014 | 0.318 | Cc1cc2c(cc1-c1cc(C)c3ncnn3c1)[nH]c1ccc(C3CCNCC3)cc12 [Example 14, 3-methyl-2-(8-methyl-[1,2,4]triazolo[1,5-a]pyridin-6-yl)-6-(piperidin-4-yl)-9H-carbazole]
7 | 0.0008 | 0.0008 | 0.095 | COc1cc(-c2cc3[nH]c4ccc(C5CCNCC5)cc4c3c(C)c2C)cn2ncnc12 [Example 15, 2-(8-Methoxy-[1,2,4]triazolo[1,5-a]pyridin-6-yl)-3,4-dimethyl-6-(piperidin-4-yl)-9H-carbazole]
8 | 0.0019 | 0.0014 | 0.108 | COc1cc(-c2cc3[nH]c4ccc(C5CCNCC5)cc4c3cc2C)cn2ncnc12 [Example 17]

Second part, the compound before the results:

Row | Compound | IC50 (human TLR7) [µM] | IC50 (human TLR8) [µM] | IC50 (human TLR9) [µM]
9 | Cc1noc(C)c1-c1ccc2c(c1)[nH]c1ccc(C3CCNCC3)cc12 [Example 1, 3,5-dimethyl-4-(6-(piperidin-4-yl)-9H-carbazol-2-yl)isoxazole] | 0.651 | 0.209 | 1.06
10 | Cc1cc(-c2ccc3c(c2)[nH]c2ccc(C4CCNCC4)cc23)cc(C)n1 [Example 2, 2-(2,6-Dimethylpyridin-4-yl)-6-(piperidin-4-yl)-9H-carbazole] | 0.022 | 0.103 | 0.053
11 | c1cncc(-c2ccc3c(c2)[nH]c2ccc(C4CCNCC4)cc23)c1 [Example 4, 6-(piperidin-4-yl)-2-(pyridin-3-yl)-9H-carbazole] | 1.47 | 1.8 | 0.541
12 | Cc1c(-c2ccc3c(c2)[nH]c2ccc(C4CCNCC4)cc23)cn(C)c(=O)c1C [Example 5, 1,3,4-trimethyl-5-(6-(piperidin-4-yl)-9H-carbazol-2-yl)pyridin-2(1H)-one] | 0.016 | 0.029 | 0.182
13 | CN1CCC(c2ccc3c(c2)[nH]c2ccc(C4CCNCC4)cc23)CC1=O (centres unmarked) [Example 6, 1-methyl-4-(6-(piperidin-4-yl)-9H-carbazol-2-yl)piperidin-2-one] | > 3.13 | > 3.13 | 1.05
14 | CC(=O)Nc1ccc2c(c1)[nH]c1ccc(C3CCNCC3)cc12 [Example 7, N-(6-(piperidin-4-yl)-9H-carbazol-2-yl)acetamide] | > 3.13 | > 3.13 | 1.06
15 | Cn1cc(-c2ccc3c(c2)[nH]c2ccc(C4CCNCC4)cc23)cn1 [Example 8, 2-(1-methyl-1H-pyrazol-4-yl)-6-(piperidin-4-yl)-9H-carbazole] | 1.38 | 0.861 | 0.648
16 | c1cc(-c2ccc3c(c2)[nH]c2ccc(C4CCNCC4)cc23)ccn1 [Example 9, 6-(Piperidin-4-yl)-2-(pyridin-4-yl)-9H-carbazole] | 0.383 | 0.061 | 0.302
17 | Cc1cc2c(cc1-c1cn(C)c(=O)c(C)c1C)[nH]c1ccc(C3CCNCC3)cc12 [Example 16] | 0.035 | 0.0055 | 0.158
18 | COc1cc(-c2cc3[nH]c4ccc(C5CN(C6CCOCC6)C5)cc4c3c(C)c2C)cn2ncnc12 [Example 37] | – | 0.0013 | 1.05
